Results on one compound are retold here after patent US10561733B2, “Process for producing nanoparticles laden with active ingredient” (Merck Patent GmbH, priority 2012, dated 2020).

The data set is described as follows: Visual solubility in organic solvent on successive addition of water. The data set is classed as physicochemical. Particulars: 1 mg/100 μl in THF, ACN, acetone, DMSO, DMF, methanol, ethanol; 10 μl water added successively until precipitation. The protocol:
If the active compound is insoluble in an organic solvent, this solvent is less suitable for the production of nanoparticles. If a clear solution is formed, in each case equal defined amounts of aqueous solvent are added stepwise and mixed in each case until precipitation of the active compound is visible after addition and mixing (visual solubility). The assessment of visual solubility is carried out visually in a suitable container, preferably in a glass tube having a small diameter, for example as are customary in gas chromatography (diameter of 0.5 cm, height 3 cm), under cold light, which preferably radiates upward, against a dark surface, preferably against a black surface, as background. A diagrammatic representation of the procedure is depicted in FIG. 1.
For loading experiments, the active compounds dexamethasone and 5-[2-(2-fluorophenyl)-1,8-naphthyridin-4-yl]-2,6-naphthyridin-1-ylamine (also called active compound B below) were used. For solvent selection, the active compounds were each dissolved in the following solvents with a concentration of 1 mg/100 μl: tetrahydrofuran (THF), acetonitrile (ACN), acetone, dimethyl sulfoxide (DMSO), dimethylformamide (DMF), methanol, ethanol. Additionally, 0.1% of trifluoroacetic acid (v/v) were added to each organic solution of active compound B in order to establish an apparent “pH”. […]

On to `C[C@@H]1C[C@H]2[C@@H]3CCC4=CC(=O)C=C[C@]4(C)[C@@]3(F)[C@@H](O)C[C@]2(C)[C@@]1(O)C(=O)CO` [dexamethasone], for which the visual solubility result is “increased visual solubility in tetrahydrofuran”.
